Experimental findings from paper PMC7367369, “A small library of chalcones induce liver cancer cell death through Akt phosphorylation inhibition” (Scientific Reports, 2020) are described below.

Counter-ions that a name gives are not always drawn. Like-named read-outs stand apart in the source and are kept apart here.

What all share (type): cell-based, human
The test system of one assay is Huh7. Kind of assay: NCI-60 sulforhodamine B (SRB) cytotoxicity assay, Huh7. The settings on record: read-out: IC50 Huh7. The method, then: (§1) The bioactivities of the synthesized chalcones were assessed on human liver cancer cell lines and on DPSCs with NCI-SRB assay in vitro. DPSCs used to asses the bioactivity of chalcones on untransformed control cells with the potential of hepatic lineage. […] We also included 5-Fluorouracil which is used in clinics for gastrointestinal cancers and Sorafenib. All results were normalized to DMSO negative control measurements. The experiment was performed in triplicate.
(§2) Well differentiated human primary liver cancer cell lines Huh7, HepG2 and Hep3B, and poorly differentiated Mahlavu, FOCUS and SNU475 HCC cells were cultured in Dulbecco’s Modified Eagle’s Standard (DMEM) medium supplemented with 10% Fetal Bovine Serum (FBS), 100 units/mL penicillin and 100 µg/mL streptomycin (Gibco, Invitrogen, Carlsbad, CA, USA). 0.1 mM nonessential amino acids (NEAA) which are specific to HCC cell lines also added to culture media. Cells were cultured in a 5% CO2 incubator at 37^∘C
(§3) Primary liver cancer cells Huh7, HepG2, Hep3B, Mahlavu, FOCUS, Snu475 along with hepatic progenitor Dental pulp stem cells were seeded into 96-well plates (1,000–3,000 HCC cell/well and 10,000 cells DPSC/well ) for 24 h. The cells were then treated with increasing concentrations of the chalcones ( 2.5-40μM ). DMSO (AppliChem Biochemica, Darmstadt, Germany) was used as negative control. The growth has stopped at the end of 72 h by fixing cold with 10% (v/v) trichloroacetic acid (Merck, Schuchardt, Germany). Cells were then stained with 0.4% (m/v) of sulforhodamine (Sigma-Aldrich, St. Louis, USA) in 1% acetic acid solution. The absorbency values were acquired at 515 nm. All experiments were done in triplicate.
(In general: The SRB assay estimates cell density from bound dye.)

The subject of another assay is HepG2. Kind of assay: NCI-60 sulforhodamine B (SRB) cytotoxicity assay, HepG2. To be noted: read-out: IC50 HepG2. The method, then:
as §1, §2
as §3, with “The absorbency values were acquired at 515 nm.” left out

A further assay relates to Hep3B. The assay can be described thus: NCI-60 sulforhodamine B (SRB) cytotoxicity assay, Hep3B. The settings on record: 72 h, read-out: IC50 Hep3B. As to the method:
as §1, §2
as §3, with “The absorbency values were acquired at 515 nm.” left out

A further assay deals with Mahlavu. Kind of assay: NCI-60 sulforhodamine B (SRB) cytotoxicity assay, Mahlavu. The settings on record: 72 h, read-out: IC50 Mahlavu. As to the method: as §1, §2
as §3, with “The absorbency values were acquired at 515 nm.” left out

The test system of another assay is FOCUS. The assay can be described thus: NCI-60 sulforhodamine B (SRB) cytotoxicity assay, FOCUS. To be noted: 72 h, read-out: IC50 FOCUS. As to the method: as §1, §2
as §3, with “The absorbency values were acquired at 515 nm.” left out

In assay [1] the test system is dental pulp stem cells (DPSC). Kind of assay: NCI-60 sulforhodamine B (SRB) cytotoxicity assay, dental pulp stem cells. The settings on record: 72 h, read-out: IC50 DPSC. As to the method: as §1
Dental pulp stem cells (DPSCs) were isolated from anonymised unidentified healthy intact wisdom tooth. DPSCs were isolated within few hours upon wisdom teeth surgery from patients above 18 years old. All were informed about the procedures, and their consents were obtained. Teeth were broken carefully in order to reach the dental pulp area. […] Then, the cells were seeded onto flasks in 10ml DMEM-F12 media (Lonza) supplemented with 1% penicillin/streptomycin solution (Hyclone) and 15% FBS (Fetal Bovine Serum,Hyclone, Logan, UT, USA) and cultured in a 5% CO2 incubator at 37^∘C .
as §3, with “The absorbency values were acquired at 515 nm.” left out

A further assay concerns SNU475. Kind of assay: NCI-60 sulforhodamine B (SRB) cytotoxicity assay, SNU475. To be noted: read-out: IC50 SNU475. As to the method: as §1, §2
as §3, with “The absorbency values were acquired at 515 nm.” left out

[2] abbreviates: Homo sapiens, Huh-7, SRB, 72 h, 2.5–40 μM, triplicate.
Setting [3] is: Homo sapiens, HepG2, SRB, 72 h, 2.5–40 μM, triplicate.
The mark [4] stands for this setting: Homo sapiens, Hep3B, SRB, 2.5–40 μM, triplicate.
The mark [5] stands for this setting: Homo sapiens, Mahlavu, SRB, 2.5–40 μM, triplicate.
The mark [6] stands for this setting: Homo sapiens, SRB, 2.5–40 μM, triplicate.
Setting [7] is: Homo sapiens, SRB, 2.5–40 μM, triplicate, untransformed control cells.
Where [8] appears, read: SRB, 72 h, 2.5–40 μM, triplicate.
[9] abbreviates: Homo sapiens, SNU-475, SRB, 72 h, 2.5–40 μM, triplicate.

Consider `O=c1[nH]cc(F)c(=O)[nH]1` [5-Fluorouracil, reference compound], for which the IC50 (usually the concentration at which inhibition is half-maximal) in the assay with Huh7 (setting [2]) amounted to 30.7 µM; in the assay with HepG2 (setting [3]), 5 µM; in the assay with Hep3B (setting [4]) it was 15.2 µM; with Mahlavu (setting [5]), 10 µM; with FOCUS (setting [6]), 7.7 µM; in assay [1] (setting [7]), 23.7 µM.

With `Oc1cc(O)c2c(c1)O[C@H](c1ccc(O)c(O)c1)[C@@H](O)C2` [Catechin hydrate, reference compound], the IC50 in the assay on Huh7 (setting [8]) was over 40 µM; in the assay on HepG2 (setting [8]), over 40 µM; in the assay with Hep3B (SRB, 2.5–40 μM, triplicate), over 40 µM; in the assay with Mahlavu (SRB, 2.5–40 μM, triplicate), over 40 µM; with FOCUS (SRB, 2.5–40 μM, triplicate) it was over 40 µM; in the assay on SNU475 (setting [8]) it was over 40 µM. Moreover, the IC50 in assay [1] (SRB, 2.5–40 μM, triplicate, untransformed control cells) is over 40 µM.

Take `COc1ccc(Cc2nccc3cc(OC)c(OC)cc23)cc1OC` [Papaverine hydrochloride, reference compound]: the half-inhibitory concentration (IC50) in the assay on Huh7 (Homo sapiens, Huh-7, 72 h) was 8.5 µM; in the assay with HepG2 (setting [3]), 4.9 µM; in the assay on Hep3B (setting [4]), 20.4 µM; in the assay on Mahlavu (setting [5]), over 40 µM; with FOCUS (setting [6]), 1.7 µM; in the assay with SNU475 (setting [9]), 17.8 µM. Also, the IC50 in assay [1] (setting [7]) was over 40 µM.

For `O=c1c(O)c(-c2ccc(O)c(O)c2)oc2cc(O)cc(O)c12` [Quercetin, reference compound], the IC50 with Huh7 (setting [2]) stood at 12.5 µM; with HepG2 (setting [3]), 8.4 µM; in the assay with Hep3B (setting [4]) it was 21.8 µM; with Mahlavu (setting [5]) it was 11.3 µM; with FOCUS (setting [6]), 17.9 µM; with SNU475 (setting [9]), 11.6 µM. For the same molecule, the half-maximal inhibitory concentration (IC50) in assay [1] (setting [7]) is 21.2 µM.

As to `CNC(=O)c1cc(Oc2ccc(NC(=O)Nc3ccc(Cl)c(C(F)(F)F)c3)cc2)ccn1` [Sorafenib, reference compound], the IC50 with Huh7 (Homo sapiens, Huh-7, 72 h) turned out to be 1.3 µM; in the assay with HepG2 (setting [3]), 5.6 µM; in the assay with Mahlavu (setting [5]) it was 7.9 µM; in the assay with SNU475 (setting [9]), 7.5 µM; in assay [1] (setting [7]), 7.1 µM.

Consider `COc1ccc(C(=O)/C=C/c2ccccc2)cc1` [compound 3], for which the half-maximal inhibitory concentration (IC50) in the assay on Huh7 (setting [2]) stood at 6.4 µM; with HepG2 (setting [3]), 7.6 µM; with Hep3B (setting [4]), 18 µM; with Mahlavu (setting [5]), 9.4 µM; in the assay on FOCUS (setting [6]), 20 µM; in the assay with SNU475 (setting [9]), 13.1 µM. In addition, the IC50 in assay [1] (setting [7]) is over 40 µM.

Regarding `O=C(/C=C/c1cccc([N+](=O)[O-])c1)c1ccccc1` [compound 4], the half-inhibitory concentration (IC50) was over 40 µM in the assay on Huh7 (setting [2]); over 40 µM in the assay on HepG2 (setting [3]); over 40 µM in the assay with Hep3B (setting [4]); 24.8 µM with Mahlavu (setting [5]); over 40 µM in the assay with FOCUS (setting [6]); 23.8 µM in the assay with SNU475 (setting [9]). Besides, the IC50 in assay [1] (setting [7]) is over 40 µM.

`COc1ccc(/C=C/C(=O)c2ccccc2)cc1` [compound 6]: the 50% inhibitory concentration (IC50) is 6.4 µM with Huh7 (Homo sapiens, Huh-7, 72 h); 7.6 µM in the assay with HepG2 (Homo sapiens, HepG2, 72 h); 7.8 µM in the assay with Hep3B (Homo sapiens, Hep3B); 6.3 µM with Mahlavu (Homo sapiens, Mahlavu); 6.5 µM in the assay with FOCUS (Homo sapiens); 10 µM with SNU475 (Homo sapiens, SNU-475, 72 h). Further, the IC50 in assay [1] (Homo sapiens) was over 40 µM.

As to `COc1ccc(/C=C/C(=O)c2cccc([N+](=O)[O-])c2)cc1` [compound 7], the IC50 in the assay with Huh7 (setting [2]) is over 40 µM; in the assay on HepG2 (setting [3]), over 40 µM; in the assay on Hep3B (setting [4]), over 40 µM; in the assay with Mahlavu (setting [5]) it was 31.1 µM; in the assay on FOCUS (setting [6]), over 40 µM; in the assay on SNU475 (setting [9]) it was over 40 µM. The IC50 in assay [1] (setting [7]) is over 40 µM.

On to `COc1ccc(/C=C/C(=O)c2ccc(OC)cc2)cc1` [compound 8], for which the IC50 in the assay with Huh7 (setting [2]) was 17.9 µM; in the assay with HepG2 (setting [3]) it was 26 µM; with Hep3B (setting [4]), 22.1 µM; with Mahlavu (setting [5]), 17.3 µM; in the assay on FOCUS (setting [6]), 21.5 µM; with SNU475 (setting [9]), 21.6 µM. In assay [1] (setting [7]), the IC50 was over 40 µM.

`COc1ccc(C(=O)/C=C/c2ccc(Cl)cc2)cc1` [compound 10]: the IC50 in the assay with Huh7 (setting [2]) is 11.9 µM; in the assay with HepG2 (setting [3]), 13.9 µM; with Hep3B (setting [4]) it was 16.5 µM; in the assay with Mahlavu (setting [5]), 14.6 µM; in the assay with FOCUS (setting [6]) it was 15.9 µM; with SNU475 (setting [9]) it was 20 µM. The half-maximal inhibitory concentration (IC50) in assay [1] (setting [7]) was over 40 µM.
